# Data as given in US20080107623A1, “Inhibitors of Hepatitis C Virus” (Bristol-Myers Squibb Company, priority 2006, published 2008).
# Columns and labels:
# [1] = target: T1, HCV NS3/4A protease complex, BMS strain (UniProt P27958, species not given/STRAIN_BMS); assay: FRET peptide assay to monitor HCV NS3/4A proteolytic activity (BMS strain); type: biochemical, HCV genotype 1a; details: NS3/4A BMS strain; read-out: IC50 Activity Range
# T1 construct: said of H77 and J4L6S, not expressly of BMS; These are given for the H77 and J4L6S constructs only
# Source text: HCV NS3 protease complexes, derived from the BMS strain, H77 strain or J4L6S strain, were generated, as described below. These purified recombinant proteins were generated for use in a homogeneous assay (see below) to provide an indication of how effective compounds of the present disclosure would be in inhibiting HCV NS3 proteolytic activity.
# Serum from an HCV-infected patient was obtained from Dr. T. Wright, San Francisco Hospital. An engineered full-length cDNA (compliment deoxyribonucleic acid) template of the HCV genome (BMS strain) was constructed from DNA fragments obtained by reverse transcription-PCR (RT-PCR) of serum RNA (ribonucleic acid) and using primers selected on the basis of homology between other genotype 1a strains. From the determination of the entire genome sequence, a genotype 1a was assigned to the HCV isolate according to the classification of Simmonds et al. (See P Simmonds, K A Rose, S Graham, S W Chan, F McOmish, B C Dow, E A Follett, P L Yap and H Marsden, J. Clin. Microbiol., 31(6), 1493-1503 (1993)). […] The infectious clones, H77 (1a genotype) and J4L6S (1b genotype) were obtained from R. Purcell (NIH) and the sequences are published in Genbank (AAB67036, see Yanagi, M., Purcell, R. H., Emerson, S. U. and Bukh, J. Proc. Natl. Acad. Sci. U.S.A. 94(16),8738-8743 (1997); AF054247, see Yanagi, M., St Claire, M., Shapiro, M., Emerson, S. U., Purcell, R. H. and Bukh, J, Virology 244 (1), 161-172. (1998)).
# NS3/4A protease complex-containing fractions were pooled and loaded on a desalting column Superdex-S200 pre-equilibrated with buffer D (25 mM HEPES, pH 7.5, 20% glycerol, 300 mM NaCl, 0.2% Triton X-100, 10 mM βME). Sample was loaded at a flow rate of 1 mL/min. NS3/4A protease complex-containing fractions were pooled and concentrated to approximately 0.5 mg/ml. The purity of the NS3/4A protease complexes, derived from the BMS, H77 and J4L6S strains, were judged to be greater than 90% by SDS-PAGE and mass spectrometry analyses. The enzyme was stored at −80° C., thawed on ice and diluted prior to use in assay buffer.
# The purpose of this in vitro assay was to measure the inhibition of HCV NS3 protease complexes, derived from the BMS strain, H77 strain or J4L6S strain, as described above, by compounds of the present disclosure. This assay provides an indication of how effective compounds of the present disclosure would be in inhibiting HCV NS3 proteolytic activity.
# In order to monitor HCV NS3/4A protease activity, an NS3/4A peptide substrate was used. The substrate was RET SI (Resonance Energy Transfer Depsipeptide Substrate; AnaSpec, Inc. cat #22991) (FRET peptide), described by Taliani et al. in Anal. Biochem. 240(2):60-67 (1996). […] The peptide also contains a fluorescence donor, EDANS, near one end of the peptide and an acceptor, DABCYL, near the other end. The fluorescence of the peptide is quenched by […] resonance energy transfer (RET) between the donor and the acceptor, but as the NS3 protease cleaves the peptide the products are released from RET quenching and the fluorescence of the donor becomes apparent.
# The peptide substrate was incubated with one of the three recombinant NS3/4A protease complexes, in the absence or presence of a compound of the present disclosure. The inhibitory effects of a compound was determined by monitoring the formation of fluorescent reaction product in real time using a Cytofluor Series 4000. […]
# [2] = system: HCV replicon (Renilla luciferase reporter) in HUH-7 cells; assay: HCV replicon luciferase reporter assay; type: cell-based, HCV strain 1b; details: Huh-7, 96 h, 4 days
# Source text: As a secondary assay, EC50 determinations from the replicon FRET assay were confirmed in a replicon luciferase reporter assay. Utilization of a replicon luciferase reporter assay was first described by Krieger et al (Krieger N, Lohmann V, and Bartenschlager R, J. Virol. 75(10):4614-4624 (2001)). The replicon construct described for our FRET assay was modified by inserting cDNA encoding a humanized form of the Renilla luciferase gene and a linker sequence fused directly to the 3′-end of the luciferase gene. This insert was introduced into the replicon construct using an AscI restriction site located in core, directly upstream of the neomycin marker gene. The adaptive mutation at position 1179 (serine to isoleucine) was also introduced (Blight K J, Kolykhalov, A A, Rice, C M, Science 290(5498):1972-1974). […] Following 4 days in a 37° C./5% CO2 incubator, cells were analyzed for Renilla Luciferase activity using the Promega Dual-Glo Luciferase Assay System. […] Plates were read on a Packard TopCount NXT using a luminescence program.
# The percentage inhibition was calculated using the formula below: % control=average luciferase signal in experimental wells (+compound) average luciferase signal in DMSO control wells (− compound)
# The values were graphed and analyzed using XLfit to obtain the EC50 value.
# T1 sequence (P27958 1027-1657, change not shown, one chain of several): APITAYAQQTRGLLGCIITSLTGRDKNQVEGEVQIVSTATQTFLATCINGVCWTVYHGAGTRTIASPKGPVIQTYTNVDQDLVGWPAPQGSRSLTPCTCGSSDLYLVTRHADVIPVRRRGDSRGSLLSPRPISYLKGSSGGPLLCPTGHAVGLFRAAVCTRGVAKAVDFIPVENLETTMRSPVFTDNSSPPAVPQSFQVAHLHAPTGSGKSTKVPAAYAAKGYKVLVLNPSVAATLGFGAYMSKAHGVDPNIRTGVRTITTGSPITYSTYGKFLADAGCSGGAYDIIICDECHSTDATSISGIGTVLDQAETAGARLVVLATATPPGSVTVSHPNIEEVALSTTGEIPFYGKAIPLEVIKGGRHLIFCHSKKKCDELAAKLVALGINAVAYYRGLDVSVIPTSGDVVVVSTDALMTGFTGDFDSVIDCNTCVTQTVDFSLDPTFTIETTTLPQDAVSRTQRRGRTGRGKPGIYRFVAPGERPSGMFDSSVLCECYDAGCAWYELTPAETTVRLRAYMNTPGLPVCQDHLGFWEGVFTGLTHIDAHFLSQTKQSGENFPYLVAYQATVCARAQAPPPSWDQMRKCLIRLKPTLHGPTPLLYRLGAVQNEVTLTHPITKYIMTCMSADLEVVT
smiles,measurement,setting,value
COc1c(O[C@@H]2C[C@H]3C(=O)N[C@]4(C(=O)NS(=O)(=O)C5CC5)C[C@H]4/C=C\CCCCC[C@H](NC(=O)OC(C)(C)C)C(=O)N3C2)ccc2c(Cl)nccc12 [Compound 3],IC50,[1],< 100 nM
same,EC50,[2],5.5 nM
